Non-standard residues stand in square brackets, D forms with d. Residues, ends and D or L forms follow the SMILES beside them. Phe(2-F) = N[C@@H](Cc1ccccc1F)C(=O)O; Orn = NCCC[C@H](N)C(=O)O; Dab = NCC[C@H](N)C(=O)O

The target of assay [1] is bovine serum albumin (BSA) (Bos taurus, UniProt P02769). Nature of the assay: Fluorescence quenching of BSA by peptides L1–3. As for the experimental part:
Fluorescence spectroscopy was carried out to characterize the mechanism of the interaction between three plasma proteins, BSA, AAG, and GGF, with the studied peptides. The fluorescence spectra of protein were collected during titration of L1–L3. The excitation wavelength was set at λ = 280 nm (both Trp and Tyr residues were excited).
To confirm this, the fluorescence data were further analyzed by the Stern–Volmer Equation (1) after correction due to the infer filter effect (2):(1) F0/F=1+kqτ[Q]=1+KSV (2) Fcorr=Fobs10^(Aex+Aem)/2 where F0 and F are the fluorescence intensities (after correction) of the protein and protein in the presence of L1–3, respectively, kq is the quenching rate constant, τ0 the average lifetime, [Q] is the L1–3 concentration, Ksv is the Stern–Volmer constant, and Fcorr, and Fobs are the corrected and observed fluorescence intensities, respectively. Aex and Aem are the absorbance values at excitation and emission wavelengths, respectively. A linear regression fit was used to calculate the value of the Stern–Volmer constant (Ksv). Then, assuming the average lifetime of the fluorophore in the excited state for a biomolecule as 10^−8 s, the quenching rate constant (kq) was computed. For dynamic quenching, the maximum scatters collision quenching rate constant for different quenchers with the biopolymers was reported to be 2 × 10^10 dm^3mol^−1s^−1 [55, 56]. […] Collisional quenching occurs when the excited-state fluorophore is deactivated by contact with some other molecule in solution (by collisions). […] This is a dynamic mechanism of quenching. The quenching constant characterizes the quenching mechanism. The maximum value for collisional quenching is 2 × 10^10 dm^3mol^−1s^−1. […] For further confirmation, measurements were made at, in addition to 297 K, temperatures 303 and 308 K. Experimental data points were fitted and analyzed using Equation (1).
Both for the complexes with BSA and with GGF, the binding constant (Kb) and the binding stoichiometry (n) were calculated. […] The values of Kb and n were calculated from the slope and the intercept of the log [(F0 − F)/F] versus log [Q] plot (Figure 2).
The forces involved in the interaction can be identified by measurement at different temperatures and then by thermodynamic analysis. The signs of the thermodynamic parameters identify the type of interactions. The enthalpy change (ΔH°), the entropic change (ΔS°), and the free energy change (ΔG°) were calculated from Equations (4) and (5):(4) […]=−ΔH^°/RT+ΔS^°/R (5) ΔG^°=ΔH^°−TΔS^°=−RTlnKb where Kb is the binding constant and R is the universal gas constant. To determine the thermodynamic parameters, the van’t Hoff plot was first conducted, i.e., the temperature dependence of the binding constant, according to Equation (4). The Kb values at the three temperatures were fitted by the linear regression method. The values of ΔH and ΔS were calculated from the slope and intercept at the fitted line. Next, the free energy change (ΔG°) was obtained from Equation (5).

For another assay, the target named is T1, BSA (Bos taurus, UniProt P02769).
T1 construct: purchased Sigma Aldrich
T1 sequence (P02769 25-607): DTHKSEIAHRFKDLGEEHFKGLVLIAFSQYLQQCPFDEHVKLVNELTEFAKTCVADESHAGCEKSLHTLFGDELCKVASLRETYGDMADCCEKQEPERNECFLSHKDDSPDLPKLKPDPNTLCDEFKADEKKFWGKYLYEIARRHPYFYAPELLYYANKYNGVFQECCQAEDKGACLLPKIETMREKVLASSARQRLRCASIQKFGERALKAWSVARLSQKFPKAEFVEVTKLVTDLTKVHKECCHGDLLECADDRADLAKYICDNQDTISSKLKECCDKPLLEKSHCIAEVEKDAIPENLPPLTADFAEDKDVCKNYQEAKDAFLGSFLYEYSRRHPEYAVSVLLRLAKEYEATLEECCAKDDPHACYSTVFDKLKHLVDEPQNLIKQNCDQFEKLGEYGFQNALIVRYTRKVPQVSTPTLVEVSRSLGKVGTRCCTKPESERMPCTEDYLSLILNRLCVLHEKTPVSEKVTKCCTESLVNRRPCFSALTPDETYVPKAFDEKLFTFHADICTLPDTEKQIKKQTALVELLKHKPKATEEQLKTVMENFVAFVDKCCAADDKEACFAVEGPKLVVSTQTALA
Particulars: 298 K, one-to-one stoichiometry; cited from earlier work. As to the method:
The enthalpy change (ΔH°), the entropic change (ΔS°), and the free energy change (ΔG°) were calculated from Equations (4) and (5):(4) […]=−ΔH^°/RT+ΔS^°/R (5) ΔG^°=ΔH^°−TΔS^°=−RTlnKb where Kb is the binding constant and R is the universal gas constant. To determine the thermodynamic parameters, the van’t Hoff plot w ...

Setting [2] is: 297 K, BSA 1.0 µM, phosphate buffer.
Where [3] appears, read: 308 K, BSA 1.0 µM, phosphate buffer.

Sequence of bovine serum albumin (BSA) (P02769 25-607): as above

For the compound `C[C@H](NC(=O)[C@H](CCN)NC(=O)[C@@H](N)CCCCN)C(=O)NCC(=O)N[C@@H](CCCN)C(=O)N1CCC[C@H]1C(=O)N[C@@H](Cc1c[nH]cn1)C(=O)N[C@@H](CCCCN)C(=O)N[C@@H](CCCNC(=N)N)C(=O)O` [L2, Lys-Dab-Ala-Gly-Orn-Pro-His-Lys-Arg] (H-K[Dab]AG[Orn]PHKR-OH), the “binding constant Kb” value was 3.39 ± 0.06 × 10^4 dm^3mol^−1 in assay [1] (setting [2]); 1.10 ± 0.05 × 10^4 dm^3mol^−1 in assay [1] (303 K, BSA 1.0 µM, phosphate buffer); 0.55 ± 0.02 × 10^4 dm^3mol^−1 in assay [1] (setting [3]); 3.39 × 10^4 dm^3mol^−1 in assay [1] (BSA, 297 K).

For `N=C(N)NCCC[C@H](NC(=O)[C@H](CCCCN)NC(=O)[C@H](Cc1ccccc1F)NC(=O)[C@@H]1CCCN1C(=O)[C@H](CCCN)NC(=O)CNC(=O)[C@H](CCN)NC(=O)[C@H](CCN)NC(=O)[C@@H](N)CCCCN)C(=O)O` [L3, Lys-Dab-Dab-Gly-Orn-Pro-Phe(2-F)-Lys-Arg] (H-K[Dab][Dab]G[Orn]P[Phe(2-F)]KR-OH), the “binding constant Kb” value is reported as 2.52 ± 0.07 × 10^4 dm^3mol^−1 in assay [1] (setting [2]) and 0.76 ± 0.03 × 10^4 dm^3mol^−1 in assay [1] (setting [3]).

On to `COc1cc2ncnc(Nc3ccc(F)c(Cl)c3)c2cc1OCCCN1CCOCC1` [gefitinib], for which the “Kb constant to BSA” value on BSA is listed as 8.32 × 10^4 dm^3mol^−1.

For the compound `CS(=O)(=O)CCNCc1ccc(-c2ccc3ncnc(Nc4ccc(OCc5cccc(F)c5)c(Cl)c4)c3c2)o1` [lapatinib], on BSA, the “Kb constant to BSA” value was 2.24 × 10^5 dm^3mol^−1.

For `CCN(CC)CCNC(=O)c1c(C)[nH]c(/C=C2\C(=O)Nc3ccc(F)cc32)c1C` [sunitinib], on BSA, the “Kb constant to BSA” value is recorded as 1.32 × 10^5 dm^3mol^−1.
